Measured values reported in the CombiSolv-Exp solvation set (Vermeire and Green 2021).

Assay: solvent given as SMILES
[1] = in CCCCCCCCC=CCCCCCCCC(=O)OCC(COC(=O)CCCCCCCC=CCCCCCCCC)OC(=O)CCCCCCCC=CCCCCCCCC

## CCCCCCC
In BrC(Br)C(Br)Br
  solvation free energy, 298 K: -3.34 kcal/mol
In Brc1ccccc1
  solvation free energy, 298 K: -4.35 kcal/mol
In C1CCC(C2CCCCC2)CC1
  solvation free energy, 298 K: -4.48 kcal/mol
In C1CCCCC1
  solvation free energy, 298 K: -4.83 kcal/mol
In C1CCOC1
  solvation free energy, 298 K: -4.58 kcal/mol
In C1COCCO1
  solvation free energy, 298 K: -3.86 kcal/mol
In C=CCCCC
  solvation free energy, 298 K: -4.71 kcal/mol
In C=CCCCCCC
  solvation free energy, 298 K: -4.63 kcal/mol
In C=CCCCCCCCC
  solvation free energy, 298 K: -4.55 kcal/mol
In C=CCCCCCCCCCCCCCC
  solvation free energy, 298 K: -4.24 kcal/mol
In CC1CCS(=O)(=O)C1
  solvation free energy, 298 K: -2.68 kcal/mol
In CC1COC(=O)O1
  solvation free energy, 298 K: -2.54 kcal/mol
In CC#N
  solvation free energy, 298 K: -3.18 kcal/mol
In CC(=O)CC(C)C
  solvation free energy, 298 K: -4.36 kcal/mol
In CC(=O)N(C)C
  solvation free energy, 298 K: -3.36 kcal/mol
In CC(=O)O
  solvation free energy, 298 K: -3.43 kcal/mol
In CC(=O)c1ccccc1
  solvation free energy, 298 K: -3.69 kcal/mol
In CC(C)(C)O
  solvation free energy, 298 K: -3.96 kcal/mol
In CC(C)=O
  solvation free energy, 298 K: -3.84 kcal/mol
In CC(C)CC(C)(C)C
  solvation free energy, 298 K: -4.6 kcal/mol
In CC(C)CCCC(C)CCCC(C)CCCCC(C)CCCC(C)CCCC(C)C
  solvation free energy, 298 K: -4.16 kcal/mol
In CC(C)CCO
  solvation free energy, 298 K: -3.97 kcal/mol
In CC(C)CO
  solvation free energy, 298 K: -3.92 kcal/mol
In CC(C)O
  solvation free energy, 298 K: -3.81 kcal/mol
In CC(C)OC(C)C
  solvation free energy, 298 K: -4.63 kcal/mol
In CC(O)CO
  solvation free energy, 298 K: -2.33 kcal/mol
In CCBr
  solvation free energy, 298 K: -4.71 kcal/mol
In CCC(C)=O
  solvation free energy, 298 K: -4.12 kcal/mol
In CCCC#N
  solvation free energy, 298 K: -3.69 kcal/mol
In CCCC(=O)OCC
  solvation free energy, 298 K: -4.35 kcal/mol
In CCCC(C)=O
  solvation free energy, 298 K: -4.17 kcal/mol
In CCCC(C)O
  solvation free energy, 298 K: -3.99 kcal/mol
In CCCCC
  solvation free energy, 298 K: -4.77 kcal/mol
In CCCCC(CC)COC(=O)CCCCC(=O)OCC(CC)CCCC
  solvation free energy, 298 K: -4.01 kcal/mol
In CCCCC(CC)COC(=O)c1ccccc1C(=O)OCC(CC)CCCC
  solvation free energy, 298 K: -3.79 kcal/mol
In CCCCCC
  solvation free energy, 298 K: -4.77 kcal/mol
In CCCCCC(C)=O
  solvation free energy, 298 K: -4.2 kcal/mol
In CCCCCCCC
  solvation free energy, 298 K: -4.62 kcal/mol
In CCCCCCCCC
  solvation free energy, 298 K: -4.57 kcal/mol
[1]
  solvation free energy, 298 K: -4.09 kcal/mol
In CCCCCCCCCC
  solvation free energy, 298 K: -4.53 kcal/mol
In CCCCCCCCCCCC
  solvation free energy, 298 K: -4.43 kcal/mol
In CCCCCCCCCCCCCCCC
  solvation free energy, 298 K: -4.34 kcal/mol
In CCCCCCCCCCCCO
  solvation free energy, 298 K: -3.99 kcal/mol
In CCCCCCCCO
  solvation free energy, 298 K: -4.02 kcal/mol
In CCCCCCO
  solvation free energy, 298 K: -4 kcal/mol
In CCCCCCOC(C)=O
  solvation free energy, 298 K: -4.27 kcal/mol
In CCCCCl
  solvation free energy, 298 K: -4.61 kcal/mol
In CCCCN(C=O)CCCC
  solvation free energy, 298 K: -3.9 kcal/mol
In CCCCO
  solvation free energy, 298 K: -3.95 kcal/mol
In CCCCOC(=O)c1ccccc1C(=O)OCCCC
  solvation free energy, 298 K: -3.88 kcal/mol
In CCCCOC(C)=O
  solvation free energy, 298 K: -4.23 kcal/mol
In CCCCOCCCC
  solvation free energy, 298 K: -4.57 kcal/mol
In CCCCl
  solvation free energy, 298 K: -4.81 kcal/mol
In CCCO
  solvation free energy, 298 K: -3.83 kcal/mol
In CCN1CCCC1=O
  solvation free energy, 298 K: -3.49 kcal/mol
In CCN(CC)C(C)=O
  solvation free energy, 298 K: -3.74 kcal/mol
In CCN(CC)CC
  solvation free energy, 298 K: -4.68 kcal/mol
In CCNC(C)=O
  solvation free energy, 298 K: -3.51 kcal/mol
In CCNC=O
  solvation free energy, 298 K: -3.25 kcal/mol
In CCO
  solvation free energy, 298 K: -3.7 kcal/mol
In CCOC(=O)c1ccccc1C(=O)OCC
  solvation free energy, 298 K: -3.35 kcal/mol
In CCOC(C)(C)C
  solvation free energy, 298 K: -4.62 kcal/mol
In CCOC(C)=O
  solvation free energy, 298 K: -4.09 kcal/mol
In CCOCC
  solvation free energy, 298 K: -4.66 kcal/mol
In CCOCCO
  solvation free energy, 298 K: -3.57 kcal/mol
In CCOCCOCCOCC
  solvation free energy, 298 K: -4.04 kcal/mol
In CCOc1ccccc1
  solvation free energy, 298 K: -4.15 kcal/mol
In CN1CCCC1=O
  solvation free energy, 298 K: -3.2 kcal/mol
In CN1CCCCC1=O
  solvation free energy, 298 K: -3.41 kcal/mol
In CN1CCN(C)C1=O
  solvation free energy, 298 K: -3.1 kcal/mol
In CN(C)C=O
  solvation free energy, 298 K: -3.16 kcal/mol
In CN(C)P(=O)(N(C)C)N(C)C
  solvation free energy, 298 K: -3.67 kcal/mol
In CNC(C)=O
  solvation free energy, 298 K: -3.34 kcal/mol
In CNC=O
  solvation free energy, 298 K: -2.85 kcal/mol
In CO
  solvation free energy, 298 K: -3.39 kcal/mol
In COC(C)(C)C
  solvation free energy, 298 K: -4.68 kcal/mol
In COC(C)=O
  solvation free energy, 298 K: -3.89 kcal/mol
In COCCO
  solvation free energy, 298 K: -3.24 kcal/mol
In COCCOCCOCCOCCOC
  solvation free energy, 298 K: -3.41 kcal/mol
In COc1ccccc1
  solvation free energy, 298 K: -4.06 kcal/mol
In CS(C)=O
  solvation free energy, 298 K: -2.27 kcal/mol
In Cc1ccc(C)cc1
  solvation free energy, 298 K: -4.58 kcal/mol
In Cc1cccc(O)c1
  solvation free energy, 298 K: -3.53 kcal/mol
In Cc1ccccc1
  solvation free energy, 298 K: -4.57 kcal/mol
In Cc1ccccn1
  solvation free energy, 298 K: -4.16 kcal/mol
In ClC(Cl)(Cl)Cl
  solvation free energy, 298 K: -4.81 kcal/mol
In ClC(Cl)Cl
  solvation free energy, 298 K: -4.64 kcal/mol
In ClCCCl
  solvation free energy, 298 K: -4.09 kcal/mol
In ClCCl
  solvation free energy, 298 K: -4.45 kcal/mol
In Clc1ccccc1
  solvation free energy, 298 K: -4.56 kcal/mol
In FC(F)(F)C(F)(F)C(F)(F)C(F)(F)C(F)(F)C(F)(F)C(F)(F)C(F)(F)F
  solvation free energy, 298 K: -2.98 kcal/mol
In FC(F)(F)C(F)(F)C(F)(F)C(F)(F)C(F)(F)C(F)(F)C(F)(F)F
  solvation free energy, 298 K: -3.2 kcal/mol
In FC(F)(F)C(F)(F)C(F)(F)C(F)(F)C(F)(F)C(F)(F)F
  solvation free energy, 298 K: -3.06 kcal/mol
In Fc1ccccc1
  solvation free energy, 298 K: -4.51 kcal/mol
In ICI
  solvation free energy, 298 K: -2.72 kcal/mol
In N#CCCCCC#N
  solvation free energy, 298 K: -2.45 kcal/mol
In N#CCCOCCC#N
  solvation free energy, 298 K: -1.99 kcal/mol
In N#Cc1ccccc1
  solvation free energy, 298 K: -3.76 kcal/mol
In NC=O
  solvation free energy, 298 K: -0.97 kcal/mol
In NCCO
  solvation free energy, 298 K: -1.34 kcal/mol
In Nc1ccccc1
  solvation free energy, 298 K: -2.99 kcal/mol
In O=C1CCCCC1
  solvation free energy, 298 K: -4 kcal/mol
In O=C1CCCO1
  solvation free energy, 298 K: -2.72 kcal/mol
In O=C(O)C(Cl)Cl
  solvation free energy, 298 K: -3.36 kcal/mol
In O=CN1CCOCC1
  solvation free energy, 298 K: -2.52 kcal/mol
In O=Cc1ccco1
  solvation free energy, 298 K: -2.96 kcal/mol
In OCCCCCO
  solvation free energy, 298 K: -2.53 kcal/mol
In OCCCCO
  solvation free energy, 298 K: -2.45 kcal/mol
In OCCCO
  solvation free energy, 298 K: -2.09 kcal/mol
In OCCO
  solvation free energy, 298 K: -1.22 kcal/mol
In OCCOCCO
  solvation free energy, 298 K: -1.9 kcal/mol
In OCCOCCOCCO
  solvation free energy, 298 K: -1.97 kcal/mol
In OCCOCCOCCOCCO
  solvation free energy, 298 K: -2.13 kcal/mol
In OCCS
  solvation free energy, 298 K: -2.46 kcal/mol
In OCCc1ccccc1
  solvation free energy, 298 K: -3.37 kcal/mol
In OCc1ccccc1
  solvation free energy, 298 K: -3.24 kcal/mol
In OCc1ccco1
  solvation free energy, 298 K: -2.87 kcal/mol
In S=C=S
  solvation free energy, 298 K: -4.76 kcal/mol
In c1ccc2c(c1)CCCC2
  solvation free energy, 298 K: -4.37 kcal/mol
In c1ccc2ncccc2c1
  solvation free energy, 298 K: -3.86 kcal/mol
In c1ccc(C2CCCCC2)cc1
  solvation free energy, 298 K: -4.33 kcal/mol
In c1ccccc1
  solvation free energy, 298 K: -4.55 kcal/mol
In c1ccncc1
  solvation free energy, 298 K: -3.9 kcal/mol

## Oc1c(I)cc(I)cc1I
In CC(C)CC(C)(C)C
  solvation free energy, 298 K: -12.4 kcal/mol
In CCCCOCCCC
  solvation free energy, 298 K: -14.2 kcal/mol
In O
  solvation free energy, 298 K: -7.16 kcal/mol

## Cc1cc(Cl)c(Cl)cc1Cl
[1]
  solvation free energy, 298 K: -7.99 kcal/mol
In O
  solvation free energy, 298 K: -1.05 kcal/mol

## CCCCCCCBr
In O
  solvation free energy, 298 K: 0.34 kcal/mol

## CCN(C)N=O
In CC(C)CC(C)(C)C
  solvation free energy, 298 K: -4.43 kcal/mol
In O
  solvation free energy, 298 K: -5.73 kcal/mol
